What was measured:
[1] = system: C57BL/6 mice, IMQ-induced psoriasis; assay: IMQ-induced psoriasis mouse model; format: in vivo; details: FIG. 5F
Protocol: The therapeutic efficacy of TAC5-a was evaluated in a psoriasis mouse model and a SLE mouse model. Psoriasis was induced in 6-7 week old C57BL/6 mice by topically applying 42 mg of IMQ cream (5%) to the shaved back skin of the mice for 6 consecutive days (FIG. 5A). TAC5-a was injected daily at doses of 50, 100 and 200 nmol/g and the effect thereof on severity was analyzed.
Histological analysis and immunochemical staining were performed on skin samples of mouse dorsal lesions. The sample was fixed with 4% paraformaldehyde solution, then embedded in paraffin and cut to 7 μm on a glass slide. The sections were stained with hematoxylin and eosin (H&E) and the thickness of the dermis and epidermis were measured. The thickness of skin was measured with a Leica DMi8 fluorescence microscope using a Leica LAS X Hardware Configurator (Leica Microsystems GmbH, Wetzlar, Germany). IMQ-mediated skin inflammation was evaluated by immunohistochemistry (IHC) using a primary antibody that recognizes CD68 (ab31630, 1:200 dilution) as a macrophage marker. […] The skin was stained with hematoxylin and eosin (H&E) in order to evaluate the thickness of the epidermis (yellow arrow) and dermis (green arrow) in IMQ-induced psoriasis mice and thereby to observe the histopathological changes of skin lesions in each group (FIG. 5G) Immunohistochemical analysis of skin lesions in each group was performed using a primary antibody that recognizes CD68.

RAW 264.7 cells = assay: MTT assay, cytotoxicity in RAW 264.7 cells; details: FIG. 4B
Protocol: RAW264.7 cells (ATCC, Manassas, Va., USA), which are mouse macrophages, were cultured in low-glucose DMEM (Thermo Fisher Scientific Inc.) supplemented with 10% FBS, 100 IU/ml penicillin and 100 μg/ml streptomycin in a culture system.
Cytotoxicity in RAW 264.7 cells was tested by treatment with these compounds at a concentration of 12.5 to 50 μM.

TLR7/8 = assay: TLR7/8-mediated IL-6 expression in THP-1 cells; format: cell-based, human; details: FIG. 4C
Protocol: RAW264.7 cells (ATCC, Manassas, Va., USA), which are mouse macrophages, were cultured in low-glucose DMEM (Thermo Fisher Scientific Inc.) supplemented with 10% FBS, 100 IU/ml penicillin and 100 μg/ml streptomycin in a culture system. Human monocyte THP1 cells were cultured in RPMI 1640 (Thermo Fisher Scientific Inc.) supplemented with 10% FBS, 100 IU/ml penicillin and 100 μg/ml streptomycin and then differentiation thereof into macrophages was induced using 10 nM phorbol 12-myristate 13-acetate (PMA) (Sigma-Aldrich Co. LLC.) for 24 hours. CL075, R848, CpG-ODN and Poly(I:C) were purchased from InvivoGen (San Diego, Calif., USA), and LPS was purchased from Sigma-Aldrich Co. (St. Louis, Mo., USA).
Cytotoxicity in RAW 264.7 cells was tested by treatment with these compounds at a concentration of 12.5 to 50 μM. […] The inhibitory effect of TAC5-a on TLR-mediated signaling was confirmed by measuring TNF-α secretion through ELISA in THP1-derived macrophages. […] In addition, in order to evaluate the antagonistic effect of TAC5-a on endosomal TLR activation, cells were cultured along with this compound in the presence of R848 (TLR7/8) or CL075 (TLR7/8), imiquimod (IMQ; TLR7), TL8 (TLR8), poly(I:C) (TLR3) or CpG ODN (TLR9) (FIGS. 4E, 4F and 4G).

Row | SMILES | thickness of the epidermis and the dermis (H&E) [1] | cytotoxicity at 50 μM (RAW 264.7 cells) | TLR7/8-mediated IL-6 expression (TLR7/8)
1 | CN(Cc1cnc2nc(N)nc(N)c2n1)c1ccc(C(=O)N[C@@H](CCC(=O)O)C(=O)O)cc1 [MTX, methotrexate, reference compound] | therapeutic effects similar to those of the treatment group were observed | – | –
2 | c1ccc(COc2cccnc2Nc2ccccc2)cc1 [TAC5-c, 3-(benzyloxy)-N-phenylpyridin-2-amine] | – | slight cytotoxicity | inhibited
3 | CCOCC(Oc1cccnc1N)c1ccccc1 (centres unmarked) [TAC5-d, 3-(2-ethoxy-1-phenylethoxy)pyridine-2-amine] | – | – | inhibited
4 | NCCOCC(Oc1cccnc1N)c1ccccc1 (centres unmarked) [TAC5-e, 3-(2-(2-aminoethoxy)-1-phenylethoxy)pyridine-2-amine] | – | – | inhibited
